Reference: patent US8377918B2 (ACC Therapeutics Inc, priority 2005, dated 2013)

Key:
[1] = tested on: A549 cell-induced tumor angiogenesis; assay: A549 Matrigel plug angiogenesis in nude mice; format: in vivo; settings: 15 μM apigenin in plug, 15 days
Description: FIG. 16. […] Each treatment group contained four mice. The mice were euthanized 15 days after implantation. Representative Matrigel plugs from the solvent- and apigenin-treated groups. C, D, the relative angiogenesis was analyzed by the levels of RBC hemoglobin, a surrogate marker, in the Matrigel plugs. The hemoglobin content was analyzed by adding 1×RBC lysis buffer (1 mM EDTA and 5 mM potassium/sodium phosphate buffer, pH 8-8.5) to a plug, followed by incubation at 4° C. overnight. Hemoglobin levels were determined by the Drabkin method by a commercial assay kit (Sigma) according to the manufacturer's instruction with some modification. […] Relative hemoglobin content is the hemoglobin level (milligrams) divided by the final volume of each plug. The data are the mean±S.E. of eight Matrigel plugs for each experiment. *, significant difference compared with the solvent control (p<0.05).

[2] = tested on: tumors induced by A2780/CP70 cells; assay: Blood vessel numbers of A2780/CP70 tumors on CAM; format: in vivo, chicken embryo; settings: 10 μM apigenin or 2.5 μM CDDP+10 μM apigenin, 10 days
Description: FIG. 4. […] The A2780/CP70 cells were seeded into 100 mm dish and grown to 90-100% confluence. […] In 10 days, the tumors were harvested and weighed. The blood vessel numbers of the tumor were counted under×100. At least five areas were determined. The data are mean±SD from two experiments (n=8). A, representative tumor morphology; B, tumor weight; C, relative numbers of blood vessels.

SMILES: O=c1cc(-c2ccc(O)cc2)oc2cc(O)cc(O)c12 [apigenin, 4′,5,7,-trihydroxyflavone]
- effect on tumor angiogenesis (hemoglobin content of Matrigel plugs) [1]: inhibited A549 cell-induced tumor angiogenesis
- inhibition of blood vessel formation (angiogenesis) [2]: 35%
